The source of these data is patent US20080227766A1, “Synergistic, Silver-Containing Biocide Composition” (THOR GMBH, priority 2005, published 2008).

Test [1] relates to Pseudomonas aeruginosa (ATCC 9027). Put plainly: MIC and synergy index (Kull) in Müller-Hinton broth. As to conditions: 72 h/25° C. The format is cell-based. On the procedure:
(§1) The synergism of a combination of silver with 1,2-benzisothiazolin-3-one (BIT) was tested. Silver was used in the form of silver nitrate. […] The test organism used was the gram-negative bacterium Pseudomonas aeruginosa (ATCC 9027). For the test, aqueous mixtures with different concentrations of silver nitrate and BIT were prepared and were tested for their activity on Pseudomonas aeruginosa. The aqueous mixtures further included a Müller-Hinton broth (commercial product “Merck Nr. 10393”) as nutrient medium. The cell density of Pseudomonas aeruginosa was 10^6 microbes/ml.
The incubation time was 72 h at 25° C. Each sample was incubated at 120 rpm on an incubation shaker. After 72 h the samples were inspected for growth of Pseudomonas aeruginosa. Growth was shown through a clouding of the nutrient medium. In this way, the minimum inhibitory concentrations (MICs) of the two actives, individually and in combination, were ascertained. The MIC is the concentration at which there is no longer any clouding of the nutrient medium.
(§2) The synergism arising was represented numerically by calculation of the synergy index (SI). The calculation was made in accordance with the commonplace method of F. C. Kull et al., Applied Microbiology, vol. 9 (1961), p. 538. There the SI is calculated according to the following formula:
synergy index SI=Qa/QA+Qb/QB. […]

Test [2] concerns Staphylococcus aureus (ATCC 6538). The description is as above. It is filed as cell-based. On the procedure:
as §1
[…] Each sample was incubated at 120 rpm on an incubation shaker. […] Growth was shown through a clouding of the nutrient medium. In this way, the minimum inhibitory concentrations (MICs) of the two actives, individually and in combination, were ascertained. The MIC is the concentration at which there is no longer any clouding of the nutrient medium.
as §2
synergy index SI=Qa/QA+Qb/QB.
When this formula is applied to the biocide system BIT+Ag under test here, the parameters in the formula are defined as follows: • Qa=concentration of BIT in the biocide mixture of BIT+Ag • QA=concentration of BIT as a single biocide • Qb=concentration of Ag in the biocide mixture of BIT+Ag • QB=concentration of Ag as a single biocide
If the synergy index has a value of more than 1, this means that antagonism is present. If the synergy index adopts a value of 1, this means that the two biocides have an additive effect.
The experiment from example 2 was repeated in the same way but using the gram-positive test organism Staphylococcus aureus (ATCC 6538) instead of Pseudomonas aeruginosa.
Example 3 was repeated in the same way, but with N-methyl-1,2-benzisothiazolin-3-one (MBIT) as the biocidal component.
Example 3 was repeated, but using N-butyl-1,2-benzisothiazolin-3-one (BBIT) as the biocidal component.

Turning to `[Ag]` [Ag, silver], the “MIC at Ag concentration Qb” value is 25.4 ppm in test [1] (Ag (from silver nitrate) in mixture BIT + Ag (or Ag alone)); 19.1 ppm in test [2] (72 h/25° C., Ag in mixture BIT + Ag (or Ag alone)); 25.4 ppm in test [2] (96 h/25° C., Ag in mixture BBIT + Ag (or Ag alone)); 27 ppm in test [2] (96 h/25° C., Ag in mixture MBIT + Ag (or Ag alone)).

For `CCCCn1sc2ccccc2c1=O` [BBIT, N-butyl-1,2-benzisothiazolin-3-one], the “MIC at BBIT concentration Qa” value in test [2] (96 h/25° C., BBIT in mixture BBIT + Ag (or BBIT alone)) came out at 20 ppm.

Regarding `O=c1[nH]sc2ccccc12` [BIT, 1,2-benzisothiazolin-3-one], the “MIC at BIT concentration Qa” value is recorded as 40 ppm in test [1] (BIT in mixture BIT + Ag (or BIT alone)) and 20 ppm in test [2] (72 h/25° C., BIT in mixture BIT + Ag (or BIT alone)).

`Cn1sc2ccccc2c1=O` [MBIT, N-methyl-1,2-benzisothiazolin-3-one]: the “MIC at MBIT concentration Qa” value in test [2] (96 h/25° C., MBIT in mixture MBIT + Ag (or MBIT alone)) turned out to be 20 ppm.
